Experimental data reported in patent US8580773B2, “Small-molecule inhibitors of the androgen receptor” (The Regents of the University of California, priority 2008, dated 2013).
“Also recorded” adds a separate entry of the source. Counter-ions that a name gives are not always drawn.

Columns and labels:
AR = target: T1, AR (Homo sapiens, UniProt P10275, T878A); assay: DHT titration against inhibitor, PSA-luciferase reporter in LNCaP cells (competitive vs non-competitive); type: cell-based; details: moderate dose of inhibitor, DHT titrated, hydrochloride
T1 construct: that each express endogenous AR; endogenous in cells; host or cells: LNCaP

LNCaP cells = assay: Cell proliferation (DNA content, DAPI) in LNCaP cells; type: cell-based, human; details: 3 nM DHT, PP 100 nM, HH 100 nM, BiC 1 μM, seven days, hydrochloride
Description: LN-AR cells were created by retroviral infection of a high-expressing AR vector into LNCaP cells, and proliferate independent of androgen in cell culture, unlike their parental line (Chen, C. D., et al., Molecular determinants of resistance to antiandrogen therapy. Nat Med, 2004. 10(1): p. 33-9). HEK293 cells were used as a control. Cells were transferred to charcoal-stripped media two days before they were split and plated in quadruplicate at a density of approximately 20,000 cells/well in 48-well plates. […] Media were changed every day, using a single preparation to ensure consistent compound concentrations. Proliferation was determined by measuring the DNA content of the cells in each well. Each day, the cells in four wells were fixed in 100% cold methanol, followed by staining for 5 min at RT with 0.2 ng/mL 4′,6-diamidino-2-phenylindole (DAPI) in PBS. The cells were washed once in PBS, then read on a fluorescence plate reader using 365/439 excitation/emission wavelengths. LAPC4 and LNCaP cells proliferated to a much greater degree in the presence of DHT, while LN-AR cells proliferated in the presence and absence of DHT.

T1 sequence (P10275 whole entry T878A): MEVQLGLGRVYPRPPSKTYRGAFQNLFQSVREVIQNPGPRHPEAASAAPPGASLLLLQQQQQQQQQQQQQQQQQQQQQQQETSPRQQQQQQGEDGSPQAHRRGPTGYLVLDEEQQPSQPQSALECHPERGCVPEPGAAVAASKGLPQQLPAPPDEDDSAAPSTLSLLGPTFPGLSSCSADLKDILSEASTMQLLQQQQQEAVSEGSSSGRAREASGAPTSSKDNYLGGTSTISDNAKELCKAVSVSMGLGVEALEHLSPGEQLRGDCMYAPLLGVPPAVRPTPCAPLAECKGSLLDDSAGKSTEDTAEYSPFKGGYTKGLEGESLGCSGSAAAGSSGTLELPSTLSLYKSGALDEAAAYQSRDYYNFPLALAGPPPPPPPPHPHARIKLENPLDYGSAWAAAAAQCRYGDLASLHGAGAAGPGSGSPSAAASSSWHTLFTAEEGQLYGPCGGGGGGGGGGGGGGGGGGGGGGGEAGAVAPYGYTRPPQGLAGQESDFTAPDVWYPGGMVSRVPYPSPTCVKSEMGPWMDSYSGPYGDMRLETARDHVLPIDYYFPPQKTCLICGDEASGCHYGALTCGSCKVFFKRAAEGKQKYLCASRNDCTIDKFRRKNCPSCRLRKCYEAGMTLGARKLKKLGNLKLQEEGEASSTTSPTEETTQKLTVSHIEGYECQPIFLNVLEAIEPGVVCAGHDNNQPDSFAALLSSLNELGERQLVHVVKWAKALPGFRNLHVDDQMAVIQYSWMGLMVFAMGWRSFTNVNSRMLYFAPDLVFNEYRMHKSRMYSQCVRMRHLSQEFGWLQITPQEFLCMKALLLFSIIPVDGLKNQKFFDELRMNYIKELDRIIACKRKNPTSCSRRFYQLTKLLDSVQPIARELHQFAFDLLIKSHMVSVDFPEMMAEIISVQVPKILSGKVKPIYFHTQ

Cc1nccc2c1[nH]c1cc(O)ccc12 [HH, harmol hydrochloride]
Mode of antagonism on DHT titration (AR): inhibited maximal DHT-induced activation; also recorded: consistent with a non-competitive antagonist
Inhibition of cell growth (LNCaP cells): inhibited significantly; also recorded: growth-inhibitory properties
